{
  "source": "paper PMC12827894",
  "about": "“Structure-guided design of picomolar-level macrocyclic TRPC5 channel inhibitors with antidepressant activity” (Acta Pharmaceutica Sinica. B, 2025)",
  "key": {"M2": {"biological_target": "T1, M2 (Homo sapiens, UniProt P08172)", "T1 construct": "purchased ICE Bioscience ICESTP SafetyOne44 Panel", "T1 sequence (P08172 whole entry)": "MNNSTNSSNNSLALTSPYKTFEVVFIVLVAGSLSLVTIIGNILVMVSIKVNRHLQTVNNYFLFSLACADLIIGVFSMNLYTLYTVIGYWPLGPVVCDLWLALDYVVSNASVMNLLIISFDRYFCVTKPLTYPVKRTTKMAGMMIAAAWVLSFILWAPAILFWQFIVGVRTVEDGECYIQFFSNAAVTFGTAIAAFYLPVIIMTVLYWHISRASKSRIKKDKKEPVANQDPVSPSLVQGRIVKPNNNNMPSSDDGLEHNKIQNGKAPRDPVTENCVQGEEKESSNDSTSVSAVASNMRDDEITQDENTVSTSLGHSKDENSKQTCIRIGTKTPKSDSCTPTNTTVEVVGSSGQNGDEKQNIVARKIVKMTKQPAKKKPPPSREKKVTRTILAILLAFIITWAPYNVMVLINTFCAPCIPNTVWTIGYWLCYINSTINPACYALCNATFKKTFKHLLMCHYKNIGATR", "experiment": "cell-based", "type": "cell-based"}, "D1": {"biological_target": "T2, D1 (Homo sapiens, UniProt P21728)", "T2 construct": "purchased ICE Bioscience ICESTP™ SafetyOne44 Panel", "T2 sequence (P21728 whole entry)": "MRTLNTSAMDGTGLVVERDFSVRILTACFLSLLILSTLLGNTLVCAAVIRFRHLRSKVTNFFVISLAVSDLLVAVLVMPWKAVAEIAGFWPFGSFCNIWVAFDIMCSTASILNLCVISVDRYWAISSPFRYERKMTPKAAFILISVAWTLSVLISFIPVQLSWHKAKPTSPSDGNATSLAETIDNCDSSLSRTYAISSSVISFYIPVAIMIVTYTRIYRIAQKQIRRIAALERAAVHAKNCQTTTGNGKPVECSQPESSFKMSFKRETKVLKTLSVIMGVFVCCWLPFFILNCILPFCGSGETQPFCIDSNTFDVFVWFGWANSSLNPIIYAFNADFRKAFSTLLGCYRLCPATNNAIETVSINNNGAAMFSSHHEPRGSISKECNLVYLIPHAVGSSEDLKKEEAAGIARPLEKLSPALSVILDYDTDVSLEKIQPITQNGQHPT", "experiment": "cell-based", "type": "cell-based"}, "TRPC4": {"biological_target": "T3, TRPC4 (Homo sapiens, UniProt Q9UBN4)", "T3 construct": "expressed in transfected cells", "experiment": "Whole-cell patch-clamp, TRPC4, 100 nmol/L EA", "type": "cell-based", "details": "HEK293T", "text": "(§1) Given that TRPC4 and TRPC5 are highly similar and often form heteromeric with TRPC1, we evaluated JDIC-127's activity on TRPC4, TRPC1/4, and TRPC1/5 using whole-cell patch-clamp recordings under agonist stimulation with 100 nmol/L EA in HEK293T cells. […].\n(§2) For electrophysiological activity testing of compounds against TRPC4 and TRPC5, stably expressed TRPC5 or TRPC4 cells were used for whole-cell patch-clamp recordings, employing a HEKA EPC10 amplifier and […] software (https://www.heka.com/downloads/downloads_main.html#down_patchmaster). Prior to recording, cells were induced with 1 μg/mL tetracycline for 24 h. For TRPC1/4 or TRPC1/5 heteromers, plasmids TRPC1 and TRPC5 or TRPC1 and TRPC4 were co-transfected into HEK293T cells. After 48 to 72 h of transfection, testing was performed. A 1-s ramp protocol from −100 to +100 mV at 0.2 Hz was applied, as previously described. The extracellular solution consisted of 140 mmol/L NaCl, 1 mmol/L MgCl2, 2 mmol/L CaCl2, 10 mmol/L Hepes, 5 mmol/L KCl, and 10 mmol/L D-glucose, with pH adjusted to 7.4 using NaOH. […] The half-maximal inhibitory concentration (IC50) of drugs was determined by recording currents at a +100 mV pulse and analyzing current amplitudes at varying drug concentrations, with IC50 values calculated using the Hill equation. […]"}, "LCK": {"biological_target": "T4, LCK (Homo sapiens, UniProt P06239)", "T4 construct": "purchased ICE Bioscience ICESTP™ SafetyOne44 Panel", "experiment": "biochemical", "details": "10 μmol/L, read-out: Antagonist JDIC-127 @10 μmol/L"}, "TRPC3": {"biological_target": "TRPC3 (Homo sapiens, UniProt Q13507)", "experiment": "Patch-clamp selectivity, TRPC3", "type": "cell-based", "details": "1 μmol/L"}, "TRPC1/5": {"biological_target": "T5, TRPC1/5 (Homo sapiens, UniProt P48995+Q9UL62)", "T5 construct": "full-length wild-type or mutant TRPC5 was cloned into a pcDNA3.1 vector; expressed in transfected cells; host or cells: HEK293T", "experiment": "Whole-cell patch-clamp, TRPC1/5 heteromer, 100 nmol/L EA", "type": "cell-based", "details": "read-out: IC50, TRPC1/5", "text": "as §1, §2"}, "CCK1": {"biological_target": "T6, CCK1 (Homo sapiens, UniProt P32238)", "T6 construct": "purchased ICE Bioscience ICESTP™ SafetyOne44 Panel", "T6 sequence (P32238 1-428)": "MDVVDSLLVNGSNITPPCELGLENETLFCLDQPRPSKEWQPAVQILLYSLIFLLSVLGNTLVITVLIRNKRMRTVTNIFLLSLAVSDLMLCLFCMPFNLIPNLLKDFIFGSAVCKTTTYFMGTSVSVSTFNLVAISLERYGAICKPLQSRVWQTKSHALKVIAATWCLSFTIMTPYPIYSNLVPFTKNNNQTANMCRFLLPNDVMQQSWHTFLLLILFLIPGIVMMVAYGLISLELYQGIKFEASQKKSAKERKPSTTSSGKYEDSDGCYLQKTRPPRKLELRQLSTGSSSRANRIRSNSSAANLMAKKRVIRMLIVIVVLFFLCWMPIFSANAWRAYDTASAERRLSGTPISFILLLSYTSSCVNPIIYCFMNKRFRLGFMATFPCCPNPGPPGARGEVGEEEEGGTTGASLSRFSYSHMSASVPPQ", "experiment": "SafetyOne44 panel: CCK1", "type": "cell-based", "details": "10 μmol/L"}, "C57BL/6J mice": {"tested_on": "C57BL/6J mice", "experiment": "m-CPP-induced anxiety model, open field test", "type": "in vivo", "details": "10 mg/kg p.o."}, "nAChRα4β2": {"biological_target": "T7, nAChRα4β2 (Homo sapiens, UniProt P17787+P43681)", "T7 construct": "ICE Bioscience ICESTP SafetyOne44 Panel", "T7 sequence (P43681 29-627 limits assumed)": "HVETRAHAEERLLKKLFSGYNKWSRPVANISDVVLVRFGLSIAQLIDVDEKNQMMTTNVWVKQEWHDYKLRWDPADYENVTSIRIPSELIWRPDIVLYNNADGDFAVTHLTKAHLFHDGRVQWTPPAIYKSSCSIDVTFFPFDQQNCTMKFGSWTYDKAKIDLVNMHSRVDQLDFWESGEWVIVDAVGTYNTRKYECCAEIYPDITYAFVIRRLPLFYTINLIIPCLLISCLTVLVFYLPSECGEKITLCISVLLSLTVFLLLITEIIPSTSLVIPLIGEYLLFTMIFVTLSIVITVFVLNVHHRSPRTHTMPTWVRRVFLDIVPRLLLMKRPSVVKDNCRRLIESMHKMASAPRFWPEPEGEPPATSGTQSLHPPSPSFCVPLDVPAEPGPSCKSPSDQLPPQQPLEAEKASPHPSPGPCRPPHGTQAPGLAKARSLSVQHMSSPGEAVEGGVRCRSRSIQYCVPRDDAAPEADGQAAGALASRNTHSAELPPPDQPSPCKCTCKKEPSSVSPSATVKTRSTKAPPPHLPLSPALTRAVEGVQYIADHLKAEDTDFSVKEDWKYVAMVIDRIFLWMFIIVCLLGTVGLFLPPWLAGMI", "T7 sequence (P17787 26-502)": "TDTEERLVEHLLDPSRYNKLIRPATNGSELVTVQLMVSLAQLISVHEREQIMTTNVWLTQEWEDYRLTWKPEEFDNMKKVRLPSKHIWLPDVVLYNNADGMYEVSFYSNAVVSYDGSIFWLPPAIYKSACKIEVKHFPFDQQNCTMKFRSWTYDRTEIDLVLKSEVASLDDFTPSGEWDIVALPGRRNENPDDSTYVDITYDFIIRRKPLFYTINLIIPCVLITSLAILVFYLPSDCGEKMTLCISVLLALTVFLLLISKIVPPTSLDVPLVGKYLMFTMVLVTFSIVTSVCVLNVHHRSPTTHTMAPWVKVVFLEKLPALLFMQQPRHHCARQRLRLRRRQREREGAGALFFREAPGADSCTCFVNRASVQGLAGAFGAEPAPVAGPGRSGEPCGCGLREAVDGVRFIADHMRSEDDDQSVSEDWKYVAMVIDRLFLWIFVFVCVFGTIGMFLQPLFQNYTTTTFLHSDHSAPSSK", "experiment": "SafetyOne44 panel ion channels: nAChRα4β2", "type": "cell-based", "details": "5 μmol/L"}, "AR": {"biological_target": "T8, AR (Homo sapiens, UniProt P10275)", "T8 construct": "purchased ICE Bioscience ICESTP™ SafetyOne44 Panel", "T8 sequence (P10275 whole entry)": "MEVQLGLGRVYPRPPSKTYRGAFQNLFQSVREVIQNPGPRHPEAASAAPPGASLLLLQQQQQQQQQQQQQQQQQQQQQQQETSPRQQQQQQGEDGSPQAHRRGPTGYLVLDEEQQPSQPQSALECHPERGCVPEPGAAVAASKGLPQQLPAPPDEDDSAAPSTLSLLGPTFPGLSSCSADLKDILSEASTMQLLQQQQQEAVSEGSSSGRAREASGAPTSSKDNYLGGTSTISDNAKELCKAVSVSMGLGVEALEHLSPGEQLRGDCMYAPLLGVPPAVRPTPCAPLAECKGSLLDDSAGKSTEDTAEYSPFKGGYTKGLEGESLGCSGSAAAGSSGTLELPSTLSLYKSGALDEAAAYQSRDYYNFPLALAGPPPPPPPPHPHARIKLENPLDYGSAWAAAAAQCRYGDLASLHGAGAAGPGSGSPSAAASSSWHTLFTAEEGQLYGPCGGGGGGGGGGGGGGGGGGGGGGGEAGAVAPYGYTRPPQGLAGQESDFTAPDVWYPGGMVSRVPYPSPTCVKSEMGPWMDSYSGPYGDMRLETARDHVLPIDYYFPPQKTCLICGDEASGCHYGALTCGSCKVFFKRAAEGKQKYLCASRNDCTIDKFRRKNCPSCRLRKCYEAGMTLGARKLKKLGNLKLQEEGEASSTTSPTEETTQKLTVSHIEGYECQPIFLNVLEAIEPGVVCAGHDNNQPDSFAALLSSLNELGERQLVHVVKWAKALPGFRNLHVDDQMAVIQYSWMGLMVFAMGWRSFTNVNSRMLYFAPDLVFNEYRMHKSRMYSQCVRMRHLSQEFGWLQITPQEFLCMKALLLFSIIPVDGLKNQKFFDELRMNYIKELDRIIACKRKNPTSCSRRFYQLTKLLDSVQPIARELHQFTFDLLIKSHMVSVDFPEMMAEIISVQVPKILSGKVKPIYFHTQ", "experiment": "cell-based", "type": "cell-based"}, "M3": {"biological_target": "T9, M3 (Homo sapiens, UniProt P20309)", "T9 construct": "purchased ICE Bioscience ICESTP SafetyOne44 Panel", "T9 sequence (P20309 whole entry)": "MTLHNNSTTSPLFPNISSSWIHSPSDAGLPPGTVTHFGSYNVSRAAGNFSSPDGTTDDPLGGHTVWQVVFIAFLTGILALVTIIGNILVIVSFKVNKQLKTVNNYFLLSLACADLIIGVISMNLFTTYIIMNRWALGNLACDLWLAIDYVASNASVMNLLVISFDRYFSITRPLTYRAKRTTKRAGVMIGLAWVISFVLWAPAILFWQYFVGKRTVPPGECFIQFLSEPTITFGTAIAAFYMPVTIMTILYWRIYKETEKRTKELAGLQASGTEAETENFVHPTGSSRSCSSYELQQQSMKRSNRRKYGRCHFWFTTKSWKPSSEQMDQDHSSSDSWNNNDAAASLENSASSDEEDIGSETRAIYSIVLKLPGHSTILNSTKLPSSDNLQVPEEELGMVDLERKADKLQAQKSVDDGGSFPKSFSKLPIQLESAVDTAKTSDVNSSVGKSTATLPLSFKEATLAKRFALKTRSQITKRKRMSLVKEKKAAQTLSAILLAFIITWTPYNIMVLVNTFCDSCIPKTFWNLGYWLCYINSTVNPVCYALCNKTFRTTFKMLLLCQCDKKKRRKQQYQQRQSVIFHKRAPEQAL", "experiment": "cell-based", "type": "cell-based"}, "hERG": {"biological_target": "hERG (Homo sapiens, UniProt Q12809)", "details": "10 μmol/L, patch-clamp"}, "M1": {"biological_target": "T10, M1 (Homo sapiens, UniProt P11229)", "T10 construct": "purchased ICE Bioscience ICESTP SafetyOne44 Panel", "T10 sequence (P11229 whole entry)": "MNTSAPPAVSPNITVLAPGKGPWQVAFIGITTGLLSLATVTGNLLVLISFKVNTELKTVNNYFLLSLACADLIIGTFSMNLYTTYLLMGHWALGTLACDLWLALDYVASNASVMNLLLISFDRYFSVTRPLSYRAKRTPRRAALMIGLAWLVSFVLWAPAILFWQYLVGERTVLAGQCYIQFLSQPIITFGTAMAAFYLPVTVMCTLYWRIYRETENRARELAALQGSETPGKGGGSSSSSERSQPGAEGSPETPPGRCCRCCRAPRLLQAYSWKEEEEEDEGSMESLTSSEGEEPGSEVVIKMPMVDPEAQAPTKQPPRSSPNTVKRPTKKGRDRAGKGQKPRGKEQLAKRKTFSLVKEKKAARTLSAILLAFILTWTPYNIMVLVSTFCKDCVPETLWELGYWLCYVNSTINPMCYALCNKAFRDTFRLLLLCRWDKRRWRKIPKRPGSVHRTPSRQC", "experiment": "cell-based", "type": "cell-based"}, "δOR": {"biological_target": "T11, δOR (Homo sapiens, UniProt P41143)", "T11 construct": "purchased ICE Bioscience ICESTP™ SafetyOne44 Panel", "T11 sequence (P41143 whole entry)": "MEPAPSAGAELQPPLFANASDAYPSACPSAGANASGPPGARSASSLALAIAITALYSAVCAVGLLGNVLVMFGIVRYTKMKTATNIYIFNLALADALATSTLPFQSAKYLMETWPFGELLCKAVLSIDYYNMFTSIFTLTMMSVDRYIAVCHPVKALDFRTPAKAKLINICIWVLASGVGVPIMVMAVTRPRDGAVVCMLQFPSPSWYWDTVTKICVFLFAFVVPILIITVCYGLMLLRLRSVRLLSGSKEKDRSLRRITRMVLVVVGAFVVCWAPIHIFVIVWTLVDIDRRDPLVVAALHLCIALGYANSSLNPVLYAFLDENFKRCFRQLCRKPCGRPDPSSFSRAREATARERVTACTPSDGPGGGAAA", "experiment": "cell-based", "type": "cell-based"}, "A2A": {"biological_target": "T12, A2A (Homo sapiens, UniProt P29274)", "T12 construct": "purchased ICE Bioscience ICESTP SafetyOne44 Panel", "T12 sequence (P29274 whole entry)": "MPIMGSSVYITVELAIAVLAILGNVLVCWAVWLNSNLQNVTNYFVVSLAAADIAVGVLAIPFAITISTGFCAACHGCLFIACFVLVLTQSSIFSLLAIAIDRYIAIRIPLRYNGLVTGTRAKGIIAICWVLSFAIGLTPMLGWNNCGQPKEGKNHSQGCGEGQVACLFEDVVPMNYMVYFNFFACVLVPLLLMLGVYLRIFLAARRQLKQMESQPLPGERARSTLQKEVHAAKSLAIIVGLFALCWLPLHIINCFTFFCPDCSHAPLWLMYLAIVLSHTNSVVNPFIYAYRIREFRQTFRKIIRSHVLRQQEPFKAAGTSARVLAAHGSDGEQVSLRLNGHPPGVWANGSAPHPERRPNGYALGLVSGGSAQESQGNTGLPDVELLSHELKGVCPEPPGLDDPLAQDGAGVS", "type": "cell-based"}, "TRPC6": {"biological_target": "TRPC6 (Homo sapiens, UniProt Q9Y210)", "experiment": "Patch-clamp selectivity, TRPC6", "type": "cell-based", "details": "1 μmol/L"}, "TRPC1/4": {"biological_target": "T13, TRPC1/4 (Homo sapiens, UniProt P48995+Q9UBN4)", "T13 construct": "expressed in transfected cells; host or cells: HEK293T", "experiment": "Whole-cell patch-clamp, TRPC1/4 heteromer, 100 nmol/L EA", "type": "cell-based", "details": "read-out: IC50, TRPC1/4", "text": "as §1, §2"}, "V1a": {"biological_target": "V1a (Homo sapiens, UniProt P37288)", "details": "agonist mode"}, "[1]": {"details": "antagonist mode, 10 μmol/L, read-out: Antagonist JDIC-127 @10 μmol/L"}},
  "data": [
    {"smiles": "O=c1c2c3nc(n2Cc2ccc(Cl)cc2)Oc2ccc(F)c(c2)OCCCCCCn3c(=O)n1CCCO", "note": "[JDIC-127]", "values": [
      {"measurement": "Agonist JDIC-127 @10 μmol/L", "setting": "M2; M2, agonist mode", "value": 2.82, "unit": "%"},
      {"measurement": "inhibition at 10 µM", "setting": "M2; M2, antagonist mode, 10 μmol/L, read-out: Antagonist JDIC-127 @10 μmol/L", "value": -0.26, "unit": "%"},
      {"measurement": "Agonist JDIC-127 @10 μmol/L", "setting": "D1; D1, agonist mode", "value": "–1.54%"},
      {"measurement": "inhibition at 10 µM", "setting": "D1; D1, antagonist mode, 10 μmol/L, read-out: Antagonist JDIC-127 @10 μmol/L", "value": 8.89, "unit": "%"},
      {"measurement": "IC50", "setting": "TRPC4", "value": 0.001, "unit": "nM"},
      {"measurement": "inhibition at 10 µM", "setting": "LCK", "value": 29.4, "unit": "%"},
      {"measurement": "inhibition at 1 µM", "setting": "TRPC3", "value": "< 20", "unit": "%"},
      {"measurement": "IC50", "setting": "TRPC1/5", "value": 0.358, "unit": "nM"},
      {"measurement": "Agonist JDIC-127 @10 μmol/L", "setting": "CCK1; CCK1, agonist mode", "value": "–3.36%"},
      {"measurement": "inhibition at 10 µM", "setting": "CCK1; CCK1, antagonist mode, read-out: Antagonist JDIC-127 @10 μmol/L", "value": 6.16, "unit": "%"},
      {"measurement": "number of entries into the central area, OFT", "setting": "C57BL/6J mice", "value": "significantly increased"},
      {"measurement": "Agonist JDIC-127 @ 5 μmol/L", "setting": "nAChRα4β2; nAChRα4β2, agonist mode", "value": 0.97, "unit": "%"},
      {"measurement": "Antagonist JDIC-127 @5 μmol/L", "setting": "nAChRα4β2; nAChRα4β2, antagonist mode", "value": 2.92, "unit": "%"},
      {"measurement": "Agonist JDIC-127 @10 μmol/L", "setting": "AR; agonist mode", "value": 0.06, "unit": "%"},
      {"measurement": "inhibition at 10 µM", "setting": "AR; [1]", "value": -7.02, "unit": "%"},
      {"measurement": "Agonist JDIC-127 @10 μmol/L", "setting": "M3; M3, agonist mode", "value": 0.99, "unit": "%"},
      {"measurement": "inhibition at 10 µM", "setting": "M3; M3, antagonist mode, 10 μmol/L, read-out: Antagonist JDIC-127 @10 μmol/L", "value": -1.46, "unit": "%"},
      {"measurement": "inhibition of hERG activity", "setting": "hERG", "value": "less than 33%"},
      {"measurement": "Agonist JDIC-127 @10 μmol/L", "setting": "M1; M1, agonist mode", "value": "–0.83%"},
      {"measurement": "inhibition at 10 µM", "setting": "M1; M1, antagonist mode, 10 μmol/L, read-out: Antagonist JDIC-127 @10 μmol/L", "value": 0.22, "unit": "%"},
      {"measurement": "Agonist JDIC-127 @10 μmol/L", "setting": "δOR; agonist mode", "value": 7.81, "unit": "%"},
      {"measurement": "inhibition at 10 µM", "setting": "δOR; [1]", "value": -21.6, "unit": "%"},
      {"measurement": "Agonist JDIC-127 @10 μmol/L", "setting": "A2A; agonist mode", "value": "–1.55%"},
      {"measurement": "Antagonist JDIC-127 @10 μmol/L", "setting": "A2A; antagonist mode", "value": "–2.78%"},
      {"measurement": "inhibition at 1 µM", "setting": "TRPC6", "value": "< 20", "unit": "%"},
      {"measurement": "IC50", "setting": "TRPC1/4", "value": 1.86, "unit": "nM"},
      {"measurement": "Agonist JDIC-127 @10 μmol/L", "setting": "V1a", "value": "–7.01%"}
    ]}
  ]
}
